According to US9034866B2 (Genentech, Inc., priority 2012, dated 2015):

Target: nuclear factor-kappa B (NF-kB)-inducing kinase (NIK) (Homo sapiens (Human), UniProt Q99558)
Assay: NIK Enzyme Inhibition Assay (Transcreener ADP fluorescence polarization)
Format: biochemical
Details: purified NIK 0.2-1 nM, 10 uM ATP, Morrison's quadratic equation; read-out: NIK ADP-FP (Ki uM)
Protocol: NIK Enzyme Inhibition Assay: The ability of the nuclear factor-kappa B (NF-kB)-inducing kinase (NIK) to catalyze the hydrolysis of adenosine-5′-triphosphate (ATP) was monitored using the Transcreener ADP (adenosine-5′-diphosphate) assay (BellBrook Labs). Purified NIK (0.2-1 nM) derived from a baculovirus-infected insect cell expression system was incubated with test compounds for 1-3.5 hours in 50 mM 2-[4-(2-hydroxyethyl)piperazin-1-yl]ethanesulfonic acid buffer (pH 7.2) containing 10 mM MgCl2, 2 mM dithiothreitol, 10 uM ATP, 0.01% Triton X-100, 0.1% gamma-globulins from bovine blood, 1% dimethylsulfoxide (DMSO), 12 ug/mL ADP antibody and 4 nM ADP-AlexaFluor® 633 tracer. Reactions were quenched by the addition of 20 mM 2,2′,2″,2′″-(ethane-1,2-diyldinitrilo)tetraacetic acid and 0.01% Brij 35. The tracer bound to the antibody was displaced by the ADP generated during the NIK reaction, which causes a decrease in fluorescence polarization that was measured by laser excitation at 633 nm with a Fluorescence Correlation Spectroscopy Plus reader (Evotec AG).

Chain of nuclear factor-kappa B (NF-kB)-inducing kinase (NIK) (Q99558 whole entry): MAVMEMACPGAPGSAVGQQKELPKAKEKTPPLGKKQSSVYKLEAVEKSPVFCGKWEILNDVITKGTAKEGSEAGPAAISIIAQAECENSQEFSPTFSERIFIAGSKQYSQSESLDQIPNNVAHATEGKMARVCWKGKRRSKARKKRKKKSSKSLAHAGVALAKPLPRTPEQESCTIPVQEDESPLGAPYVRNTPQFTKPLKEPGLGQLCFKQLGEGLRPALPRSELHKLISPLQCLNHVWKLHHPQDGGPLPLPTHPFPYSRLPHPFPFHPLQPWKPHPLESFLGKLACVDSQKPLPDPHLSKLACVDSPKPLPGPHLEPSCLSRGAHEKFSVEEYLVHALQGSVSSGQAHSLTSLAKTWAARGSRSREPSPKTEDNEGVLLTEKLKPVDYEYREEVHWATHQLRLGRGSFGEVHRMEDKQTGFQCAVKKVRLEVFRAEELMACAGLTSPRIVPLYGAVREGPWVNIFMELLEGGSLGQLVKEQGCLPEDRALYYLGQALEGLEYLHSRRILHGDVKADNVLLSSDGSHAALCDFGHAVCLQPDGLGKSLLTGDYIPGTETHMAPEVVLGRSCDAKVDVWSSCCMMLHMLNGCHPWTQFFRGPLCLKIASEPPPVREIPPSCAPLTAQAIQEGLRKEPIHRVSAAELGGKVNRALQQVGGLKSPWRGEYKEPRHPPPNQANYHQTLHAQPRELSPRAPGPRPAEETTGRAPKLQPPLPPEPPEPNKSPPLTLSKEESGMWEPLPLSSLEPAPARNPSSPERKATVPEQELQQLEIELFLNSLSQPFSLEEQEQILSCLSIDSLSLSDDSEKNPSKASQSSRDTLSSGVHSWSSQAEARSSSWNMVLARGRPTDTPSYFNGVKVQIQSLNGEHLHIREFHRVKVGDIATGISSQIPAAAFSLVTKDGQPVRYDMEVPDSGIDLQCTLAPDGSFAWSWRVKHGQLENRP

SMILES | Ki [µM]
CNC(=O)C(C)(O)C#Cc1cc2c(cc1F)OCCn1cc(C(N)=O)nc1-2 (centres unmarked) | 1.4
Cc1nc(C(C)(O)C#Cc2cc3c(cc2F)OCCn2cc(C(N)=O)nc2-3)c[nH]1 (racemic) | 2.5
CNC(=O)c1c(C(N)=O)nc2n1CCOc1ccc(C#C[C@](C)(O)c3ccccn3)cc1-2 | > 5
CN1CCC(O)(C#Cc2ccc3c(c2)-c2nc(C(N)=O)cn2CCO3)C1 (centres unmarked) [Example 23, 9-(3-hydroxy-1-methyl-pyrrolidin-3-yl-ethynyl)-4,5-dihydro-6-oxa-1,3a-diaza-benzo[e]azulene-2-carboxylic acid amide] | > 5
CC(O)(C#Cc1cc2c(cc1F)OCCn1cc(C(N)=O)nc1-2)c1ncccn1 (centres unmarked) [Example 16, 8-fluoro-9-(3-hydroxy-3-pyrimidin-2-yl-but-1-ynyl)-4,5-dihydro-6-oxa-1,3a-diaza-benzo[e]azulene-2-carboxylic acid amide] | 0.025
CN(C)C(=O)C(C)(O)C#Cc1cc2c(cc1F)OCCn1cc(C(N)=O)nc1-2 (racemic) [Example 51] | 0.721
CN1CC[C@@](O)(C#Cc2ccc3c(c2)-n2nc(C(N)=O)c(Cl)c2C(F)(F)CO3)C1=O [Example 719, (R)-3-chloro-4,4-difluoro-9-((3-hydroxy-1-methyl-2-oxopyrrolidin-3-yl)ethynyl)-4,5-dihydrobenzo[b]pyrazolo[1,5-d][1,4]oxazepine-2-carboxamide] | 0.0004
CN1CC[C@](O)(C#Cc2cc3c(cc2F)C2CC(C2)n2c-3nc(C(N)=O)c2C(C)(C)O)C1=O [Example 325, 9-fluoro-3-(1-hydroxy-1-methyl-ethyl)-10-[2-[(3S)-3-hydroxy-1-methyl-2-oxo-pyrrolidin-3-yl]ethynyl]-5,6,7,12-tetra-hydro-5,7-methanobenzo[c]imidazo-[1,2-a]azepine-2-carboxamide] | > 1.2
CN1CC[C@@](O)(C#Cc2ccc3c(c2)-c2nc(C(N)=O)c(C(F)F)n2C2CC3C2)C1=O [Example 664, 3-(difluoromethyl)-10-[2-[(3R)-3-hy-droxy-1-methyl-2-oxo-pyrrolidin-3-yl]ethy-nyl]-5,6,7,12-tetrahydro-5,7-methano-benzo[c]imidazo[1,2-a]azepine-2-carboxamide] | 0.00078
Cc1cc([C@](C)(O)C#Cc2ccc3c(c2)-c2nc(C(N)=O)c(C(=O)NCc4cccc(F)c4)n2CCO3)no1 [Example 713, (R)-N3-(3-fluorobenzyl)-10-(3-hydroxy-3-(5-methylisoxazol-3-yl)but-1-yn-1-yl)-5,6-dihydrobenzo[f]imidazo[1,2-d][1,4]oxazepine-2,3-dicarboxamide] | > 1.2
CC(C)(O)C#Cc1cc2c(cc1F)C1CC(C1)n1c-2nc(C(N)=O)c1CN1CCOCC1 | 0.021
Cc1cc([C@](C)(O)C#Cc2ccc3c(c2)-c2nc(C(N)=O)c(C(=O)N(C)C)n2C2CC3C2)no1 (racemic) | 0.03
Cn1cnc(C(C)(O)C#Cc2cc3c(cc2F)OCCc2sc(C(N)=O)nc2-3)c1 (centres unmarked) | > 5
CN(C)C1COc2cc(F)c(C#CC(C)(C)O)cc2-c2nc(C(N)=O)sc21 (racemic) | > 5
CC(C)(C#Cc1cc2c(cc1F)OCCn1cc(C(N)=O)nc1-2)CO (racemic) | > 5
CC(O)(C#Cc1cc2c(cc1F)OCCn1cc(C(N)=O)nc1-2)C(F)(F)F (centres unmarked) [Example 56, 8-fluoro-9-(4,4,4-trifluoro-3-hydroxy-3-methyl-but-1-ynyl)-4,5-dihydro-6-oxa-1,3a-diaza-benzo[e]azulene-2-carboxylic acid amide] | 2
CC(O)(C#Cc1ccc2c(c1)-c1nc(C(N)=O)cn1C1CC2C1)c1nc[nH]n1 (centres unmarked) | 0.018
CC(C)(O)C#Cc1cc2c(cc1Cl)OCCn1cc(C(N)=O)nc1-2 (racemic) [Example 186] | > 5
CC(O)(C#Cc1ccc2c(c1)-c1nc(C(N)=O)cn1CCO2)CO (centres unmarked) [Example 20] | 0.771
CC(C)(O)C#Cc1ccc2c(c1)-c1nc(C(N)=O)c(-c3cc[nH]n3)n1CCO2 [Example 110] | 0.023
Cc1nc(C(C)(O)C#Cc2cc3c(cc2Cl)OCCn2cc(C(N)=O)nc2-3)no1 (racemic) [Example 231] | > 5
CC(O)(C#Cc1cc2c(cc1F)OCCn1cc(C(N)=O)nc1-2)c1ccncn1 (centres unmarked) | > 5
CC(C)(O)C#Cc1cc2c(cc1F)C1CC(C1)c1c-2nc(C(N)=O)n1Cc1ccccc1Cl | 0.0036
CC(C)(O)C#Cc1ccc2c(c1)-c1nc(C(N)=O)c(Cn3ncc4ccccc43)n1CCO2 | 0.14
CC(C)(O)C#Cc1ccc2c(c1)-c1nc(C(N)=O)cn1C1CC2C1 [Example 179, 10-(3-hydroxy-3-methyl-but-1-ynyl)-5,6,7,12-tetrahydro-5,7-methanobenzo[c]imi-dazo[1,2-a]azepine-2-carboxamide] | 0.022
CC(O)(C#Cc1cc2c(cc1F)OCCn1cc(C(N)=O)nc1-2)c1ccc(Cl)cn1 (centres unmarked) [Example 102, 9-[3-(5-chloro-pyridin-2-yl)-3-hydroxy-but-1-ynyl]-8-fluoro-4,5-dihydro-6-oxa-1,3a-diaza-benzo[e]azulene-2-carboxy-lic acid amide] | > 5
CC(C)(O)C#Cc1cc2c(cc1F)C1CC(C1)c1sc(C(N)=O)cc1-2 (racemic) | 0.11

The next lines start with the values.

Ki [µM] | SMILES
0.105 | CC(C)(O)C#Cc1cc2c(cc1F)OCCn1c-2nc(C(N)=O)c1C(=O)NC(C)(C)C#N (racemic) [Example 61]
4 | CC(O)(C#Cc1cc2c(cc1F)OCCn1cc(C(N)=O)nc1-2)c1ncc(F)cn1 (centres unmarked)
0.16 | CC(C)N(C)Cc1c(C(N)=O)nc2n1C1CC(C1)c1cc(F)c(C#CC(C)(C)O)cc1-2 [Example 223]
0.12 | CN1CCN(Cc2c(C(N)=O)nc3n2C2CC(C2)c2cc(F)c(C#CC(C)(C)O)cc2-3)CC1 (racemic)
0.004 | CC(C)(O)C#Cc1cc2c(cc1F)OCCn1c-2nc(C(N)=O)c1C(=O)NCC1COC1 [Example 91]
> 5 | Cc1cccnc1C(C)(O)C#Cc1cc2c(cc1F)OCCn1cc(C(N)=O)nc1-2 (racemic) [Example 62]
0.0033 | CN1CC[C@@](O)(C#Cc2ccc3c(c2)-n2nc(C(N)=O)cc2C2(COC2)CO3)C1=O [Example 714, (R)-9-((3-hydroxy-1-methyl-2-oxopyrro-lidin-3-yl)ethynyl)-5H-spiro[ben-zo[b]pyrazolo[1,5-d][1,4]oxazepine-4,3′-oxetane]-2-carboxamide]
1 | CC(O)(C#Cc1ccc2c(c1)-n1nc(C(N)=O)cc1CCO2)C1CCCO1 (centres unmarked) [Example 696]
0.23 | COCCN(C)Cc1c(C(N)=O)nc2n1C1CC(C1)c1cc(F)c(C#CC(C)(C)O)cc1-2 (racemic) [Example 239]
0.00077 | CC(C)(O)C#Cc1cc2c(cc1F)C1CC(C1)n1c-2nc(C(N)=O)c1-c1nc(-c2cccnc2)n[nH]1 (racemic) [Example 207]
0.014 | Cn1cncc1C(O)c1c(C(N)=O)nc2n1C1CC(C1)c1cc(F)c(C#CC3(O)CCCC3)cc1-2 (centres unmarked)
0.155 | CC(O)(C#Cc1cc2c(cc1F)OCCn1cc(C(N)=O)nc1-2)C(=O)N1CC(F)(F)C1 (racemic) [Example 156]
0.093 | CC(C)(O)C#Cc1ccc2c(c1)-c1nc(C(N)=O)sc1C(O)CO2 (centres unmarked) [Example 12, 4-hydroxy-9-(3-hydroxy-3-methyl-but-1-ynyl)-4,5-dihydro-6-oxa-3-thia-1-aza-benzo[e]azulene-2-carboxylic acid amide]
0.0013 | Cn1nccc1Cc1c(C(N)=O)nc2n1C1CC(C1)c1ccc(C#C[C@@](C)(O)c3ncccn3)cc1-2
